Results published in patent US9187472B2 (AbbVie Inc., priority 2012, dated 2015).

The compounds below were run on PC3 cells (assay: NAMPT Cell Proliferation Assay). Conditions: Homo sapiens, PC-3, 120 h, 5 days incubation, cell viability by Cell Titer Glo.
Format: cell-based
Method in brief: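 Proliferation of PC3 cells treated 5 days with a 10-fold compound series (top 10 μM) was quantified by Cell Titer Glo luminescence; IC50s were fitted from percent inhibition.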

Point of comparison: `Cn1ncc2c(C(=O)N3CCC(c4ccc(NC(=O)NCc5ccn6ccnc6c5)cc4)CC3)cccc21` [Example 1152, 1-(imidazo[1,2-a]pyridin-7-ylmethyl)-3-(4-{1-[(1-methyl-1H-indazol-4-yl)carbonyl]piperidin-4-yl}phenyl)urea], IC50 3.08 nM. Against it:
- CCCc1c(C(=O)N2CCC(c3ccc(NC(=O)NCc4ccn5ccnc5c4)cc3)CC2)cnn1C [Example 1141, 1-(imidazo[1,2-a]pyridin-7-ylmethyl)-3-(4-{1-[(1-methyl-5-propyl-1H-pyrazol-4-yl)carbonyl]piperidin-4-yl}phenyl)urea] — within 1.5-fold, 2.2 nM
- CC(C(=O)N1CCC(c2ccc(NC(=O)NCc3ccn4ccnc4c3)cc2)CC1)n1ccc(C2CC2)n1 (centres unmarked) [Example 1142, 1-(4-{1-[2-(3-cyclopropyl-1H-pyrazol-1-yl)propanoyl]piperidin-4-yl}phenyl)-3-(imidazo[1,2-a]pyridin-7-ylmethyl)urea] — within 1.5-fold, 2.9 nM
- O=C(NCc1ccn2ccnc2c1)Nc1ccc(C2CCN(C(=O)c3cc4ccccn4n3)CC2)cc1 [Example 1143, 1-(imidazo[1,2-a]pyridin-7-ylmethyl)-3-{4-[1-(pyrazolo[1,5-a]pyridin-2-ylcarbonyl)piperidin-4-yl]phenyl}urea] — 5.6-fold higher, 17.4 nM
- O=C(NCc1ccn2ccnc2c1)Nc1ccc(C2CCN(C(=O)c3ccc4occc4c3)CC2)cc1 [Example 1144, 1-{4-[1-(1-benzofuran-5-ylcarbonyl)piperidin-4-yl]phenyl}-3-(imidazo[1,2-a]pyridin-7-ylmethyl)urea] — 3.1-fold higher, 9.6 nM
- CC(C)c1nc(C(=O)N2CCC(c3ccc(NC(=O)NCc4ccn5ccnc5c4)cc3)CC2)co1 [Example 1145, 1-(imidazo[1,2-a]pyridin-7-ylmethyl)-3-[4-(1-{[2-(propan-2-yl)-1,3-oxazol-4-yl]carbonyl}piperidin-4-yl)phenyl]urea] — 2.3-fold higher, 7.04 nM
- Cn1ncc2cccc(C(=O)N3CCC(c4ccc(NC(=O)NCc5ccn6ccnc6c5)cc4)CC3)c21 [Example 1146, 1-(imidazo[1,2-a]pyridin-7-ylmethyl)-3-(4-{1-[(1-methyl-1H-indazol-7-yl)carbonyl]piperidin-4-yl}phenyl)urea] — 1.6-fold lower, 1.88 nM
- COc1ncc(C)cc1C(=O)N1CCC(c2ccc(NC(=O)NCc3ccn4ccnc4c3)cc2)CC1 [Example 1147, 1-(imidazo[1,2-a]pyridin-7-ylmethyl)-3-(4-{1-[(2-methoxy-5-methylpyridin-3-yl)carbonyl]piperidin-4-yl}phenyl)urea] — within 1.5-fold, 2.83 nM
- COc1ccc(C(=O)N2CCC(c3ccc(NC(=O)NCc4ccn5ccnc5c4)cc3)CC2)nc1OC [Example 1148, 1-(4-{1-[(5,6-dimethoxypyridin-2-yl)carbonyl]piperidin-4-yl}phenyl)-3-(imidazo[1,2-a]pyridin-7-ylmethyl)urea] — within 1.5-fold, 2.72 nM
- Cn1cc2c(C(=O)N3CCC(c4ccc(NC(=O)NCc5ccn6ccnc6c5)cc4)CC3)cccc2n1 [Example 1149, 1-(imidazo[1,2-a]pyridin-7-ylmethyl)-3-(4-{1-[(2-methyl-2H-indazol-4-yl)carbonyl]piperidin-4-yl}phenyl)urea] — within 1.5-fold, 2.62 nM
- CCC1CCCCN1C(=O)C(=O)N1CCC(c2ccc(NC(=O)NCc3ccn4ccnc4c3)cc2)CC1 (centres unmarked) [Example 1150, 1-(4-{1-[(2-ethylpiperidin-1-yl)(oxo)acetyl]piperidin-4-yl}phenyl)-3-(imidazo[1,2-a]pyridin-7-ylmethyl)urea] — 21-fold higher, 64.1 nM
- Cn1cc2ccc(C(=O)N3CCC(c4ccc(NC(=O)NCc5ccn6ccnc6c5)cc4)CC3)cc2n1 [Example 1151, 1-(imidazo[1,2-a]pyridin-7-ylmethyl)-3-(4-{1-[(2-methyl-2H-indazol-6-yl)carbonyl]piperidin-4-yl}phenyl)urea] — 2.5-fold higher, 7.78 nM
- O=C(NCc1ccn2ccnc2c1)Nc1ccc(C2CCN(C(=O)c3ccoc3C(F)(F)F)CC2)cc1 [Example 1153, 1-(imidazo[1,2-a]pyridin-7-ylmethyl)-3-[4-(1-{[2-(trifluoromethyl)furan-3-yl]carbonyl}piperidin-4-yl)phenyl]urea] — 1.8-fold lower, 1.72 nM
- O=C(NCc1ccn2ccnc2c1)c1ccc(C2=CCN(c3ccncn3)CC2)cc1 [Example 1154, N-(imidazo[1,2-a]pyridin-7-ylmethyl)-4-[1-(pyrimidin-4-yl)-1,2,3,6-tetrahydropyridin-4-yl]benzamide] — 55-fold higher, 170 nM
- O=C(NCc1ccn2ccnc2c1)c1ccc(C2=CCN(c3cc(C(F)(F)F)ncn3)CC2)cc1 [Example 1156, N-(imidazo[1,2-a]pyridin-7-ylmethyl)-4-{1-[6-(trifluoromethyl)pyrimidin-4-yl]-1,2,3,6-tetrahydropyridin-4-yl}benzamide] — 11-fold higher, 35.4 nM
- CNCCOC12CC3(C)CC(C)(CC(Cn4ncc(-c5ccc(C(=O)NCc6ccn7ccnc7c6)s5)c4C)(C3)C1)C2 [Example 1157, 5-[1-({3,5-dimethyl-7-[2-(methylamino)ethoxy]tricyclo[3.3.1.1^3,7]dec-1-yl}methyl)-5-methyl-1H-pyrazol-4-yl]-N-(imidazo[1,2-a]pyridin-7-ylmethyl)thiophene-2-carboxamide] — 17-fold higher, 53.1 nM
- CC1(C(=O)N2CCC(c3ccc(C(=O)NCc4cn5ccnc5cn4)c(F)c3)CC2)CC1 [Example 1158, 2-fluoro-N-(imidazo[1,2-a]pyrazin-6-ylmethyl)-4-{1-[(1-methylcyclopropyl)carbonyl]piperidin-4-yl}benzamide] — 1.5-fold lower, 2.04 nM
- O=C(NCc1cn2ccnc2cn1)c1ccc(C2CCN(C(=O)c3ccccc3)CC2)cc1F [Example 1159, 4-(1-benzoylpiperidin-4-yl)-2-fluoro-N-(imidazo[1,2-a]pyrazin-6-ylmethyl)benzamide] — 5.6-fold higher, 17.4 nM
- CC(C)C(=O)N1CCC(c2ccc(C(=O)NCc3cn4ccnc4cn3)c(F)c2)CC1 [Example 1160, 2-fluoro-N-(imidazo[1,2-a]pyrazin-6-ylmethyl)-4-[1-(2-methylpropanoyl)piperidin-4-yl]benzamide] — 5.3-fold higher, 16.3 nM
- O=C(NCc1cn2ccnc2cn1)c1ccc(C2CCN(C(=O)CC(F)(F)F)CC2)cc1F [Example 1161, 2-fluoro-N-(imidazo[1,2-a]pyrazin-6-ylmethyl)-4-[1-(3,3,3-trifluoropropanoyl)piperidin-4-yl]benzamide] — 20-fold higher, 61 nM
- O=C(Cc1ccc2nncn2c1)Nc1ccc(C2CCN(C(=O)c3ccccc3F)CC2)cc1 [Example 1162, N-{4-[1-(2-fluorobenzoyl)piperidin-4-yl]phenyl}-2-([1,2,4]triazolo[4,3-a]pyridin-6-yl)acetamide] — 20-fold higher, 61.8 nM
- CC1(Cn2cc(-c3ccc(C(=O)NCc4ccn5ccnc5c4)s3)cn2)CCN(CCN2CCNCC2)CC1 [Example 1163, N-(imidazo[1,2-a]pyridin-7-ylmethyl)-5-[1-({4-methyl-1-[2-(piperazin-1-yl)ethyl]piperidin-4-yl}methyl)-1H-pyrazol-4-yl]thiophene-2-carboxamide] — within 1.5-fold, 2.7 nM
- CC1(Cn2cc(-c3ccc(C(=O)NCc4ccn5ccnc5c4)s3)cn2)CCN(C(=O)CSC[C@H](N)C(=O)O)CC1 [Example 1164, S-(2-{4-[(4-{5-[(imidazo[1,2-a]pyridin-7-ylmethyl)carbamoyl]thiophen-2-yl}-1H-pyrazol-1-yl)methyl]-4-methylpiperidin-1-yl}-2-oxoethyl)-L-cysteine] — 51-fold higher, 158 nM
